Legend:
[1] = molar heat capacity at constant pressure; details: 1000 kPa, Liquid
[2] = Liquid; for kinematic viscosity: 101.33 kPa, Capillary tube (Ostwald / Ubbelohde) method; for mass density: 1000 kPa, Vibrating tube method

CCCCOCCOCCOCCCC [5,8,11-trioxapentadecane]
Details | kinematic viscosity, [2] [m2/s] | mass density, [2] [kg/m3] | molar heat capacity at constant pressure, [1] [J/K/mol]
283.15 K | 3.36e-06 | 891.6 | –
293.15 K | 2.69e-06 | 883.2 | –
303.15 K | 2.21e-06 | 875 | –
312.57 K | – | – | 456.53
313.15 K | 1.86e-06 | 866.8 | –
322.47 K | – | – | 460.9
323.15 K | 1.59e-06 | 858.5 | –
332.37 K | – | – | 465.49
333.15 K | 1.38e-06 | 850.4 | –
342.27 K | – | – | 470.51
343.15 K | 1.22e-06 | 842.1 | –
352.18 K | – | – | 475.75
353.15 K | 1.08e-06 | 833.7 | –
362.08 K | – | – | 480.33
363.15 K | 9.68e-07 | 824.9 | –
371.98 K | – | – | 486.88
373.15 K | 8.72e-07 | 816.5 | –
381.88 K | – | – | 493.65
383.15 K | 7.95e-07 | 807.9 | –
391.78 K | – | – | 500.42
393.15 K | 7.28e-07 | 799.4 | –
401.68 K | – | – | 505.44
403.15 K | 6.7e-07 | 790.8 | –
411.58 K | – | – | 512.21
413.15 K | 6.21e-07 | 782.1 | –
421.48 K | – | – | 517.89
423.15 K | 5.78e-07 | 773.3 | –

CCOCCOCCOCC [diethylene glycol diethyl ether]
Details | kinematic viscosity, [2] [m2/s] | mass density, [2] [kg/m3] | molar heat capacity at constant pressure, [1] [J/K/mol]
283.15 K | 1.84e-06 | 917.4 | –
293.15 K | 1.5e-06 | 907.9 | –
303.15 K | 1.27e-06 | 898.4 | –
312.57 K | – | – | 349.11
313.15 K | 1.09e-06 | 889 | –
322.47 K | – | – | 351.22
323.15 K | 9.56e-07 | 879.5 | –
332.37 K | – | – | 353.33
333.15 K | 8.48e-07 | 870 | –
342.27 K | – | – | 355.44
343.15 K | 7.6e-07 | 860.2 | –
352.18 K | – | – | 358.68
353.15 K | 6.91e-07 | 850 | –
362.08 K | – | – | 360.79
363.15 K | 6.33e-07 | 840.2 | –
371.98 K | – | – | 364.85
373.15 K | 5.77e-07 | 830.3 | –
381.88 K | – | – | 368.9
383.15 K | 5.32e-07 | 820.4 | –
391.78 K | – | – | 372.15
393.15 K | 4.93e-07 | 810.3 | –
401.68 K | – | – | 377.01
403.15 K | 4.59e-07 | 800 | –
411.58 K | – | – | 380.75
413.15 K | 4.29e-07 | 789.7 | –
421.48 K | – | – | 384.8
423.15 K | 4.02e-07 | 779.2 | –
